Usually solubility stands for the concentration that dissolves in the medium under given conditions. The low end stands for a poorly soluble substance, the high end for a readily soluble substance. In general, logP refers to a log measure of how a compound divides between an organic and an aqueous phase. A lower logP goes with lower lipophilicity. For orientation: logD means the decadic logarithm of the distribution of all forms, ionised or not, between an organic phase and buffer at a given pH. As usually defined, the half-life is how long it takes for the measured level to halve.

Data set [1] can be described thus: Aqueous solubility of compound after 5 hrs at 25 degC by LC-MS/MS analysis. It counts as physicochemical. Conditions: aqueous medium (not specified further).
The nature of data set [2]: n-Octanol/water partition co-efficient, log P of the compound after 4 hrs by LC-MS/MS analysis. The data set is classed as physicochemical.
Data set [3] can be described thus: n-Octanol-PBS buffer distribution coefficient, log D of the compound after 4 hrs by LC-MS/MS analysis. It counts as physicochemical.
The species named for data set [4] is Rattus norvegicus. Briefly: Inhibition of P-gp in rat jejuna mucosa crude membrane fractions assessed as ATPase activity preincubated for 5 mins followed by ATP addition and measured after 30 mins. It counts as cell membranes.
Data set [5] in a line: Protein binding in plasma (unknown origin) at 10 to 100 uM after 4 hrs by LC-MS/MS analysis. The data set is classed as ADME, cell-free. Conditions: read-out: PPB.
A short description of data set [6]: Ratio of drug level in blood to plasma (unknown origin) at 500 nM by LC-MS/MS analysis. The data set is classed as ADME, cell-free. Conditions: blood and plasma.
The nature of data set [7]: Half life in rat liver microsomes at 10 uM in presence of NADPH by LC-MS/MS analysis. The data set is classed as ADME, Microsome.
Data set [8] is described as follows: Intrinsic clearance in rat liver microsomes assessed per mg protein at 10 uM in presence of NADPH by LC-MS/MS analysis. It counts as ADME, Microsome. The following applies: read-out: CLH. For orientation: Liver microsomes are vesicles of endoplasmic reticulum, rich in cytochrome P450 enzymes.
Data set [9] can be described thus: Hepatic intrinsic clearance in rat liver microsomes assessed per kg body weight at 10 uM in presence of NADPH by LC-MS/MS analysis. It counts as ADME, Microsome.
A short description of data set [10]: Hepatic clearance in rat liver microsomes at 10 uM in presence of NADPH by LC-MS/MS analysis. It counts as ADME, Microsome.
Data set [11] is described as follows: Hepatic extraction ratio in rat liver microsomes at 10 uM in presence of NADPH by LC-MS/MS analysis. The data set is classed as ADME, Microsome. Conditions: read-out: ERH.
Data set [12] in a line: Half life in human liver microsomes at 10 uM in presence of NADPH by LC-MS/MS analysis. It counts as ADME, Microsome.
Data set [13] is described as follows: Intrinsic clearance in human liver microsomes assessed per mg protein at 10 uM in presence of NADPH by LC-MS/MS analysis. Conditions: read-out: CLH. It counts as ADME, Microsome.
Data set [14] can be described thus: Hepatic intrinsic clearance in human liver microsomes assessed per kg body weight at 10 uM in presence of NADPH by LC-MS/MS analysis. The data set is classed as ADME, Microsome.
Data set [15] can be described thus: Hepatic clearance in human liver microsomes at 10 uM in presence of NADPH by LC-MS/MS analysis. It counts as ADME, Microsome.
The nature of data set [16]: Hepatic extraction ratio in human liver microsomes at 10 uM in presence of NADPH by LC-MS/MS analysis. The data set is classed as ADME, Microsome. The following applies: read-out: ERH.
Data set [17] is described as follows: Stability in rat liver microsomes at 10 uM in presence of NADPH by LC-MS/MS analysis. It counts as ADME, Microsome. The following applies: read-out: Stability.
The nature of data set [18]: Stability in human liver microsomes at 10 uM in presence of NADPH by LC-MS/MS analysis. The following applies: read-out: Stability. The data set is classed as ADME, Microsome.
Data set [19] is filed under the species Rattus norvegicus. Briefly: Inhibition of P-gp in rat jejuna mucosa crude membrane fractions assessed as reduction in ATPase activity preincubated for 5 mins followed by ATP addition and measured after 30 mins. It counts as cell membranes.

Values after ≈ are worked out from the molar mass of the structure shown. Active and inactive are the calls of the source. The rule behind the calls is not given here.

`CCCCCCCC(c1cn([C@@H]2O[C@H](CO)[C@@H](O)[C@H](O)[C@H]2O)c2ccc(Br)cc12)c1cn([C@@H]2O[C@H](CO)[C@@H](O)[C@H](O)[C@H]2O)c2ccc(Br)cc12`: in [1], the solubility at 5 h came out at 5.8 µg/mL (≈ 7.02 µM). The compound further returned a logP at 4 h in data set [2] of 1.06. The compound also displayed a logD at 4 h in data set [3] of 0.08. Further, the Activity in the data set listed under Rattus norvegicus [4] lay within 5.5 to 6.1 µM/min. The fraction unbound at 4 h, up to 100 µM in [5] was less than 0.01. In addition, the blood plasma ratio at 0.5 µM in data set [6] is not above 1.4. Further, the half-life at 10 µM in data set [7] stood at 1.16 h; in data set [12], 1.35 h. For the same compound, the microsomal CLint at 10 µM was 20 µL/min/mg in [8] and 19 µL/min/mg in [13]. Besides, the CLH in data set [9] came out at 35.9 mL/min/kg; in data set [10], 21.7 mL/min/kg; in data set [14], 22.3 mL/min/kg; in data set [15] it was 10.6 mL/min/kg. Further, the hepatic extraction ratio at 10 µM in [11] worked out at 0.39; in [16], 0.5. Also, the remaining at 10 µM in data set [17] and in data set [18] was more than 73% in each case.

Take `O[C@@H](COc1cccc2ncccc12)CN1CCN([C@@H]2c3ccccc3[C@@H]3[C@H](c4ccccc42)C3(F)F)CC1`: in the data set filed under Rattus norvegicus [19], the inhibition entry was “Active”.

For the compound `CC(C)NCC(O)COc1ccc(CC(N)=O)cc1` (stereo not given) [ATENOLOL], the blood plasma ratio at 0.5 µM in data set [6] was not above 1.2.

For the origin of these results see ChEMBL document CHEMBL4400544, “Pharmacokinetic evaluation of medicinally important synthetic N,N' diindolylmethane glucoside: Improved synthesis and metabolic stability” (Bioorg Med Chem Lett, 2019).
